System: patient derived xenografts (PDX) from localized breast cancer tumors
Assay: Drug response of breast cancer patient derived xenografts (complete vs non/incomplete response)
Format: in vivo
Conditions: breast cancer PDX library; AC tested on 37 PDXs, Olaparib on 33 PDXs
Experimental: A library of 37 patient derived xenografts (PDX) from localized breast cancer tumors were assayed using RNA-seq to determine gene expression profiles and Exome-seq to detect somatic mutations. AC (a combination of the chemotherapies Adriamycin (doxorubicin) and cyclophosphamide) was tested on the 37 PDXs, and 33 were also treated using Olaparib (a PARP inhibitor). The responses of the PDX to the treatments are categorized into Complete Response and non/incomplete response. […] Thus, the complete response to Olaparib results in 28 False and 5 True samples. The complete response to AC results in 26 False and 11 True samples.

In the case of O=C(c1cc(Cc2n[nH]c(=O)c3ccccc23)ccc1F)N1CCN(C(=O)C2CC2)CC1 [Olaparib], the “samples showing a complete response” value was 5 samples and the “samples showing non- or partial responses” value was 28 samples.

— US12603148B2, “Method for analysis of omics data” (Max-Delbrück-Centrum für Molekulare Medizin in der …, priority 2021, dated 2026)
